From PubChem BioAssay (NCI) come the findings set out here.

Some test systems named below: DMS 114 small cell lung; DLD-1 colon; KM20L2 colon; RXF-631 renal; HOP-18 NSCLC; DMS 273 small cell lung; LXFL 529 NSCLC; MDA-N; XF 498 CNS.
Holding throughout (experiment): growth of human tumour cells (NCI), 48 h

Several values for one entry are separate records, joined by “and”; a condition that tells them apart may be missing. Identical values can stand only once.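 Dose response: 5 concentrations. Exposure: 48 h. Format: 96-well plates. Endpoint: linear interpolation; highest concentration if not reached. GI50 is the concentration that inhibits growth by half. TGI denotes the concentration required for complete inhibition of growth.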

As to `CC[C@@H]1NC(C(=O)OC)Cc2c1[nH]c1ccccc21` (some centres not stated), the TGI in the experiment with DMS 114 small cell lung, in the experiment with DLD-1 colon, in the experiment on KM20L2 colon, in the experiment on RXF-631 renal, in the experiment on HOP-18 NSCLC and in the experiment on DMS 273 small cell lung was over 100 µM each time. In the experiment on LXFL 529 NSCLC, this compound yielded a TGI of over 100 µM.

Compound `CCCCCCCCSC1=C(Cl)C(=O)C(OC)=C(OC)C1=O` registered a TGI in the experiment on MDA-N of 17.6 µM.

With `COc1cc(C[P+](c2ccccc2)(c2ccccc2)c2ccccc2)cc(OC)c1OC`, the TGI with XF 498 CNS, with DMS 114 small cell lung, in the experiment on DLD-1 colon, in the experiment on KM20L2 colon, with DMS 273 small cell lung and in the experiment on LXFL 529 NSCLC was over 100 µM each time.

As to `C/C(=N\NC(N)=O)c1sc(-c2nc(C)c(/C(C)=N/NC(N)=O)s2)nc1C`, the TGI in the experiment on XF 498 CNS is over 100 µM; in the experiment on DLD-1 colon, over 100 µM; with KM20L2 colon, over 100 µM; with HOP-18 NSCLC, over 100 µM; with DMS 273 small cell lung, 49.6 µM; with LXFL 529 NSCLC, over 100 µM.

As to `CC12c3ccccc3C(OC=O)(c3ccccc31)C1(C)c3ccccc3C2(OC=O)c2ccccc21`, the TGI in the experiment with DMS 114 small cell lung, with DLD-1 colon, in the experiment on KM20L2 colon, with RXF-631 renal, in the experiment on HOP-18 NSCLC and in the experiment on DMS 273 small cell lung was over 100 µM in each case. In the experiment on LXFL 529 NSCLC, this compound displayed a TGI of over 100 µM.

Turning to `CC1=C(C(=O)Nc2ccccc2)C(c2ccc(Cl)c(Cl)c2)C(C(=O)Nc2ccccc2)=C(C)N1`, the TGI with XF 498 CNS came out at 30.6 µM; in the experiment with DMS 114 small cell lung, 24.8 µM; with DLD-1 colon, 25.7 µM; in the experiment on KM20L2 colon, 29.8 µM; with RXF-631 renal, 27.7 µM; with DMS 273 small cell lung, 27.5 µM. In addition, the TGI in the experiment with LXFL 529 NSCLC was 25.6 µM.

Consider `CC(C)C1CN(C(=O)OCc2ccccc2)C2N1C(=O)C2(C)OCc1ccccc1` (configuration not stated), for which the TGI in the experiment with XF 498 CNS was 33.5 µM; in the experiment on DMS 114 small cell lung, over 100 µM; with DLD-1 colon, over 100 µM; in the experiment on KM20L2 colon it was over 100 µM; with RXF-631 renal, over 100 µM; with DMS 273 small cell lung, over 100 µM. This compound also displayed a TGI in the experiment with LXFL 529 NSCLC of over 100 µM.

Regarding `CCCCCCCCCCCC[N+]12CC[N+](CCN)(CC1)CC2`, the TGI in the experiment on XF 498 CNS, in the experiment with DMS 114 small cell lung, in the experiment with DLD-1 colon, in the experiment on KM20L2 colon, in the experiment on RXF-631 renal and with HOP-18 NSCLC was over 100 µM in each case. The figures for the TGI in the experiment with DMS 273 small cell lung and in the experiment on LXFL 529 NSCLC were 31.9 µM and over 100 µM, respectively.

As for `COc1c(C)c(OCC=C(C)C)cc(CO)c1CO`, the TGI in the experiment with MDA-N was over 100 µM.

Compound `O=[N+]([O-])c1ccccc1N=Nc1c(O)[nH]c2c(Cl)cc(Cl)cc12` displayed a TGI in the experiment on MDA-N of over 100 µM.

As for `O=c1[nH]c(=O)n(C2CC(O)C(CO)O2)cc1OS(=O)(=O)C(F)(F)F` (configuration not stated), the TGI in the experiment with XF 498 CNS, in the experiment on DMS 114 small cell lung, in the experiment on DLD-1 colon, in the experiment with KM20L2 colon, with RXF-631 renal and in the experiment with HOP-18 NSCLC was over 100 µM in each case. Also, the TGI in the experiment on DMS 273 small cell lung and with LXFL 529 NSCLC was over 100 µM in each case.

As for `O=C1c2cccc3cccc(c23)C(=O)N1CCN(CCO)CCO`, the TGI in the experiment with XF 498 CNS is 66.5 µM; with DLD-1 colon it was over 100 µM; in the experiment on KM20L2 colon, 56.6 µM; with RXF-631 renal it was over 100 µM; with HOP-18 NSCLC it was over 100 µM; in the experiment on DMS 273 small cell lung it was 66.3 µM. In the experiment with LXFL 529 NSCLC, the TGI was over 100 µM.

`Cc1ccc2c(c1)c1ccc3c(c1n2C)C(=O)C=CC3=O`: the TGI in the experiment with MDA-N is 3.65 µM.

`O=C(CC(=O)Nc1ccccc1)NNC(Sc1ccccc1)c1cc(N=Nc2ccc(Br)cc2)ccc1O` (configuration not stated) returned a TGI in the experiment on MDA-N of over 10 µM.

For `O=[N+]([O-])c1cccnc1N=Nc1c(O)[nH]c2ccccc12`, the TGI in the experiment with MDA-N is over 100 µM.

As to `COc1ccc(/C=C\c2cc(OC)c(OC)c(OC)c2)cc1OCC(=O)O`, the TGI was over 100 µM with DMS 114 small cell lung; 13.5 µM with MDA-N; over 90.2 µM with DLD-1 colon; over 100 µM with KM20L2 colon; over 100 µM with RXF-631 renal; over 100 µM in the experiment with HOP-18 NSCLC. In addition, the TGI in the experiment with DMS 273 small cell lung is 75.1 µM; in the experiment on LXFL 529 NSCLC it was over 100 µM.

As for `CC(C)=CCC1=C(O)c2ccccc2C(=O)C1=O`, the TGI in the experiment on XF 498 CNS, with DMS 114 small cell lung, with MDA-N, in the experiment with KM20L2 colon, in the experiment on RXF-631 renal and with HOP-18 NSCLC was over 100 µM throughout. Further, the TGI with DMS 273 small cell lung and in the experiment with LXFL 529 NSCLC was over 100 µM throughout. Further, the GI50 in the experiment on KM20L2 colon was > 100 µM and 48.9 µM; in the experiment with DMS 273 small cell lung it was 37.8 µM and 9.15 µM; in the experiment on LXFL 529 NSCLC, > 100 µM and 16.2 µM.

Turning to `CN(C)CCNC(=O)Cc1ccccc1Nc1c(Cl)cccc1Cl`, the TGI was found to be 33.1 µM in the experiment on DMS 114 small cell lung; 27.3 µM in the experiment on DLD-1 colon; 13.9 µM in the experiment with KM20L2 colon; 30.5 µM in the experiment on DMS 273 small cell lung; 32.5 µM in the experiment with LXFL 529 NSCLC.

`COc1cc2c3c(n(C)c(=O)c2cc1OC)-c1cc2c(cc1C3=O)OCO2` yielded a TGI with MDA-N of over 100 µM.

Take `O=C(CNc1ccc(Cl)cc1Cl)Nn1c(-c2ccccc2)nc2ccccc2c1=O`: the TGI with MDA-N is 34.5 µM.

Consider `Nc1c(S(=O)(=O)c2ccc(Cl)cc2)c2nc3ccccc3nc2n2ccnc12`, for which the TGI was over 100 µM in the experiment with XF 498 CNS; over 100 µM in the experiment on DMS 114 small cell lung; over 100 µM with DLD-1 colon; 79.3 µM in the experiment with HOP-18 NSCLC; over 100 µM with DMS 273 small cell lung; over 100 µM in the experiment on LXFL 529 NSCLC.

As for `CN1Nc2ccccc2CC1=O`, the TGI in the experiment on XF 498 CNS, with DMS 114 small cell lung, in the experiment with DLD-1 colon, in the experiment with KM20L2 colon, in the experiment on HOP-18 NSCLC and in the experiment on DMS 273 small cell lung was over 100 µM throughout.
